1 compound from paper PMC11134387, “Cancer-Stem-Cell Phenotype-Guided Discovery of a Microbiota-Inspired Synthetic Compound Targeting NPM1 for Leukemia” (JACS Au, 2024) can be followed below.

Molecules are shown by their SMILES. “Also recorded” adds a separate entry of the source.

One experiment relates to NPM1. Description: qPCR of NPM1 expression in OCI-AML3 cells. It counts as cell-based. The settings on record: OCI-AML3, 10 μM. An excerpt: We next studied the impact of UCM-13369 in the genes and/or expression levels of NPM1 and NPM1 C+ pathway components (Figure 4A), including the positive regulation of c-Myc[34] and the negative regulation of FBXW7 and the pro-apoptotic CASP8.[35] […] The inhibition of NPM1 was also observed in MOLM13 cells expressing WT NPM1 (Figure S1B). […]
quantitative real-time PCR (qPCR), or were sorted using a FACS BD INFL UX cell sorter (BD Biosciences, Franklin Lakes, NJ, USA). All cells were maintained at 37 °C in a humidified incubator in an atmosphere of 5% CO2, and passaged every 2–3 days.
Additionally, they were cultured using RPMI media (Gibco/Life Technologies; Grand Island, NY, USA) supplemented with 10% fetal bovine serum (FBS) (Hyclone) and […]
Primary cells. […] After 72 h in maintenance cells were ready to start the assays. […]
Colonospheres, mamospheres and colony formation unit assays. […] After 10 days (mamospheres and colonospheres) and 14 days (CFU-E) we quantified t he number of colonies/spheres and number of cell s (CFU-E) by […]
RNA and DNA extraction and quantitative PCR (qPCR). […] Gene expression was studied from the extracted RNA, processed into cDNA to quantify the expression of NPM1 and c-MYC. […]
The relative amount of targets was determined by the comparative Ct method.
Western blot. […] Lysates wer e cl ear ed by centrifugation (14,000g, 4 °C, 30 min), protein concentration determined by Bradford
For orientation: In qPCR the cycle at which signal appears reflects the starting amount.

In another experiment the test system is FBXW7. As to the kind of experiment: Western blot of FBXW7 in OCI-AML3 cells. It counts as cell-based. The procedure:
We next studied the impact of UCM-13369 in the genes and/or expression levels of NPM1 and NPM1 C+ pathway components (Figure 4A), including the positive regulation of c-Myc[34] and the negative regulation of FBXW7 and the pro-apoptotic CASP8.[35] […] The inhibition of NPM1 was also observed in MOLM13 cells expressing WT NPM1 (Figure S1B).
Assay (Bio-Rad Labo rato ries, Hercules, CA, USA) and 20 µg of total protein s was loaded onto 10% SDS-PAGE gels followed by transfer onto a nitrocellulose membrane. Blots were incubated with primary antibodies α-NPM1 (Abcam ), α-M YC (Cel l Signaling), α-FBXW7 ( Abcam) and an ti-mouse or anti-rabbit secondary antibodies (BD). An antibody to β-actin was used to check for equivalent protei n loading. Membranes were developed by enhanced chemiluminescenc e (Clarity Weste rn ECL substrate; Bio-Rad Laboratories ). […]
Proteomic analysis. A supplementary table (Excel file) includes all the data of the proteomic analysis, showing all the proteins identified, not only those ablated in the treated population, but also those found with different expression levels in both populations under study, and even those that were not detected in the control population but were detected in the treated population. Follows the image of a Venn diagram showing the number of proteins detected in each of the pop ulations and the proteins that converg e […]
A general note: Immunoblotting shows a protein as a band on a membrane.

A further experiment concerns OCI-AML3-ffLuc-GFP cells. As to the kind of experiment: AML xenograft mouse model (OCI-AML3-ffLuc-GFP in NSG mice). In kind it is in vivo. On the procedure:
Based on the encouraging results obtained in ex vivo models of AML, we further assessed the therapeutic potential of the new NPM1 inhibitor in vivo. Prior to the evaluation of the compound in an animal model of AML, in vivo pharmacokinetic studies were addressed. Following a single intraperitoneal administration of UCM-13369 at a dose of 25 mg/kg, levels of 200–600 μg/L were detected in mouse peripheral blood up to 6 h (Figure 6A). Plasma protein binding of the compound in mouse serum was measured using an equilibrium dialysis assay, indicating a bound fraction of 83 ± 1%. Next, the efficacy of the compound was evaluated in immunodeficient mice after injection of OCI-AML3-ffLuc-GFP cells as an AML animal model.
An AML xenograft mouse model was used for the in vivo study of efficacy. Female 6- to 8-week-old NOD.Cg-Prkdcscid Il2rgtm1Wjl/SzJ (NSG) mice (Vivotecnia, Madrid, Spain) were inoculated intravenously by tail vein injection with OCI-AML3-ffLuc-GFP cells (1 × 10^6). Four days later, the mice were randomized into two groups of 10 animals: the first group received intraperitoneal injections of vehicle (0.9% saline solution) 5 days a week; the second group received intraperitoneal injections of 25 mg/kg or 50 mg/kg UCM-13369 five times weekly for 3 weeks. The mice were monitored for tumor burden, distribution, and engraftment every week by IVIS whole-body bioluminescence imaging. Bioimaging of MM burden in vivo was performed by IVIS Imaging system (Caliper Life Science). A solution of luciferin (D-luciferin monosodium salt, Thermo Fisher) in PBS was injected (150 mg/kg, ip), and luminescence signal was determined after 10 min. The data were analyzed using the Living Image 4.2 (Caliper Life Science) software.

For `COc1ccc(C2Cc3[nH]c4ccccc4c3C(CCNCC3CC3)C2N)cc1` (stereo not drawn) [4b, 4-{2-[(Cyclopropylmethyl)amino]ethyl}-2-(4-methoxyphenyl)-2,3,4,9-tetrahydro-1H-carbazol-3-amine], in the experiment on NPM1, the “NPM1 expression, dot plot (in words)” value is “decreased NPM1 expression”. Further, the “FBXW7 levels (in words)” value in the experiment on FBXW7 is “upregulated”. The “Reduction in tumor mass (in words)” value in the experiment with OCI-AML3-ffLuc-GFP cells (25 mg/kg, data not shown) is listed as “negligible”. Also, the “Tumor cell infiltration of bone marrow, H&E staining (in words)” value with OCI-AML3-ffLuc-GFP cells (50 mg/kg) was “less tumor cell infiltration”. Moreover, the “Survival, treated vs untreated animals (in words)” value in the experiment with OCI-AML3-ffLuc-GFP cells (50 mg/kg, Kaplan-Meier, listed as UCM-13369) is on record as “no significant differences; also recorded: no difference”. Further, in the experiment with OCI-AML3-ffLuc-GFP cells (50 mg/kg, bioluminescence), the “Tumor infiltration vs untreated group at end point (in words)” value is reported as “reduction of tumor infiltration”.
